Tested on: traumatic edema
Assay: Topical application of GTN to traumatic edema, general observation
Type: in vivo
From the text: The detumescence of the swelling associated with a traumatic edema is accelerated; instead of darkening of the skin, the healing occurs with a green, followed by a yellow, coloration of the affected skin area.

Structure (SMILES): O=[N+]([O-])OCC(CO[N+](=O)[O-])O[N+](=O)[O-] [GTN, glyceryl trinitrate]
- typical swelling and darkening of the affected skin sites (1.2 to 6 mg GTN on day of injury, then 0.8 to 1.6 mg GTN daily, topical): reduces and/or prevents
- individual healing phases (compared to an untreated edema): significantly shortened
- reduction of overall healing period for the treated edemas (compared to an untreated edema): one-half
- healing of traumatic edema (topically applied): greatly accelerates
